Patent US4699907A, “4-morpholinyl-1H-indoles, pharmaceutical compositions and use” (Roussel Uclaf, priority 1985, dated 1987)

Assays:
mice = test: Acute toxicity study; format: in vivo; details: oral administration to mice
Protocol: The lethal doses LDO of the different compounds tested were evaluated after oral administration to mice.

enolase γγ = test: Test for enolase (kainic acid induced neuron lesions); format: in vivo; details: mice; 1 mg/kg intraperitoneally one hour before 35 mg/kg sub-cutaneous kainic acid
male rats = test: Test of labyrinth in T after partial lesion of the septo hippocampic route; format: in vivo, rat; details: electrolytic partial septo-hippocampic lesion, 20 mg/kg orally, 1 hour before test, days +5 to +8, compared to untreated animals
Protocol: A: Test of labyrinth in T after partial lesion of the septo hippocampic route
By means of an electrolytic partial lesion of neurons of the septo-hippocampic route, a disfunction of the cognitive faculty was provoked in male rats having acquired an apprenticeship in a labyrinth in the form of a T and then the speed of recovery of the disturbed memory faculties was measured. The animals got accustomed to their new environment on days -9 to -6 and rested on days -5 and -4. Their apprenticeship was carried out on days -3 to 0. At this time, the response of the rats was positive at 75-80%. On day 0, the lesion was carried out and the animals rested on days +1 to +3. The animals were tested on day +4 and at this time, only 50% of the responses were positive. From day +5 to +8, the rats were tested after being treated orally with the products under test 1 hour earlier. On day +11, the rats were tested without treatment. The percentage of positive responses of the treated animals were compared in relation to the untreated animals.

hippocampus of the rat = test: Test for neuron activation (accumulation of 2-deoxyglucose-6-phosphate); format: in vivo; details: 14C 2-deoxyglucose tracer dose
Protocol: C: Test for neuron activation
Neuron activation causes an increase in the corresponding metabolism which is shown by an increase in the consumption of glucose, a proof of energy consumption. This increase was evaluated by measuring the accumulation in the neuron cells of 2deoxyglucose-6-phosphate stemming from the conversion by hexokinase of 2-deoxyglucose ^14 C, an analogue of glucose, administered as a tracer dose, which used the same route of entry into the cell as glucose.

## CN1C[C@H](CO)O[C@H](c2cccc3[nH]ccc23)C1 (relative stereo) [Example 3, (2RS, 6RS) 6-(1H-indol-4-yl)-4-methyl-2-morpholine methanol]
mice
  LDO (maximum dose which does not cause mortality in 8 days): ≥ 400 mg/kg

## CSC[C@H]1CN(C)C[C@@H](c2cccc3[nH]ccc23)O1 (relative stereo) [Example 4, 4-[(2R-cis) 4-methyl-6-[(methylthio)methyl]-2-morpholinyl]-1H-indole (dl)]
Enolase γγ
  decrease of the serous concentration of enolase γγ: 34%
mice
  LDO (maximum dose which does not cause mortality in 8 days): 200 mg/kg
Male rats
  recovery of the memory functions: significantly improved the recovery of the memory functions
Hippocampus of the rat
  accumulation of 2-deoxyglucose 6-P in the hippocampus: increase in the accumulation of 2-deoxyglucose 6-P

## CN1C[C@H](CC#N)O[C@H](c2cccc3[nH]ccc23)C1 (relative stereo) [Example 5, (2SR, 6RS) 6-(1H-indol-4-yl)-4-methyl-2-morpholine acetonitrile]
mice
  LDO (maximum dose which does not cause mortality in 8 days): ≥ 200 mg/kg

## N,N-diethyl 6-(1H-indol-4-yl)-4-methyl-2-morpholine carboxamide [Example 2]
mice
  LDO (maximum dose which does not cause mortality in 8 days): ≥ 200 mg/kg
